Measurements published in US11078202B2, “β-lactamase inhibitor and use thereof” (priority 2018, dated 2021).
Structures can show the parent of a compound that is named as a salt.

Columns and labels:
Format in all cases: cell-based
[1] = test system: Klebsiella pneumoniae XNWB 0005; test: MIC assay of test compounds combined with ceftazidime (8 μg/mL); settings: ceftazidime 8 μg/mL fixed
Procedure: (§1) The bacterial strains used for the minimum inhibitory concentration (MIC) test were frozen in a −80° C. ULT freezer and thawed 2 days before use. A small amount of frozen bacterial strains were scraped using a sterile inoculating loop, streaked onto a TSA solid culture dish for inoculation, and then cultured for 20-24 h at 35±2° C. in a normal atmospheric environment. 5-10 colonies with similar morphology were picked from the culture dish using a sterile inoculating loop and then re-streaked onto a suitable solid culture dish. Then the dish was placed into a normal incubator for culture for 20-24 h at 35±2° C. 5-10 single bacterial colonies were picked from the solid culture dish, resuspended in 500 μL of 0.9% NaCl, and adjusted to an OD600 of 0.1-0.15 with a spectrophotometer. The bacteria were then diluted 300-fold with 1.1×CAMHB. […] Dilution of test compounds: […] 2 μL of each compound in the dilution master plate of the test compounds was transferred to the corresponding well of the assay plates. In the mean time, 2 μL of 100% DMSO was transferred to the compound-free wells (GC and SC wells). (1) 8 μL of imipenem in the additive plate of imipenem was transferred to the corresponding wells of the assay plates; (2) 8 μL of ceftazidime in the additive plate of ceftazidime was transferred to the corresponding wells of the assay plates; (3) 8 μL of ampicillin in the additive plate of ampicillin was transferred to the corresponding wells of the assay plates. 90 μL of corresponding bacterial inocula were added to wells (except for SC wells) of the assay plates. After addition, the 6 assay plates were covered by sterile covers. The mixtures in the assay plates were centrifuged by a centrifuge at 1000 rpm for 30 s, and mixed uniformly by oscillating with a microplate oscillator at 800 rpm for 1 min, and then cultured in a common incubator for 16-20 h at 35±2° C. The minimum inhibitory concentration of each compound was recorded by reference to guidelines from the Clinical and Laboratory Standards Institute. […] The effect of the test compounds in combination with imipenem, ceftazidime, and ampicillin was also tested. […] The bacterial inocula in the assay plates were resuscitated from TSA and diluted in CAMHB, while growth controls (GC wells) and sterile controls (SC wells) were set up in the assay plates. The minimum inhibitory concentration of each compound combination against different bacteria was observed and recorded after the assay plates were incubated in a common incubator at 35±2° C. for 16-20 h, and the results are shown in Tables 1-3.

[2] = test system: Klebsiella pneumoniae XNWB 0006; test: as above; settings: ceftazidime 8 μg/mL fixed
Procedure: as §1

[3] = test system: Klebsiella pneumoniae XNWB 0004; test: as above; settings: ceftazidime 8 μg/mL fixed
Procedure: as §1

[4] = test system: Klebsiella pneumoniae XNWB 0003; test: as above; settings: ceftazidime 8 μg/mL fixed
Procedure: as §1

[5] = test system: Klebsiella pneumoniae XNWB 0002; test: as above; settings: ceftazidime 8 μg/mL fixed
Procedure: as §1

[6] = test system: Pseudomonas aeruginosa XNWB 0008; test: as above; settings: ceftazidime 8 μg/mL fixed
Procedure: as §1

[7] = test system: Klebsiella pneumoniae XNWB 0001; test: as above; settings: ceftazidime 8 μg/mL fixed
Procedure: as §1

[8] = test system: Acinetobacter baumannii XNWB 0007; test: as above; settings: ceftazidime 8 μg/mL fixed
Procedure: as §1

[9] = test system: Klebsiella pneumoniae XNWB 0005; test: MIC assay of test compounds combined with imipenem (4 μg/mL); settings: imipenem 4 μg/mL fixed
Procedure: as §1

[10] = test system: Klebsiella pneumoniae XNWB 0006; test: as above; settings: imipenem 4 μg/mL fixed
Procedure: as §1

[11] = test system: Klebsiella pneumoniae XNWB 0004; test: as above; settings: imipenem 4 μg/mL fixed
Procedure: as §1

[12] = test system: Klebsiella pneumoniae XNWB 0003; test: as above; settings: imipenem 4 μg/mL fixed
Procedure: as §1

[13] = test system: Klebsiella pneumoniae XNWB 0002; test: as above; settings: imipenem 4 μg/mL fixed
Procedure: as §1

[14] = test system: Pseudomonas aeruginosa XNWB 0008; test: as above; settings: imipenem 4 μg/mL fixed
Procedure: as §1

[15] = test system: Klebsiella pneumoniae XNWB 0001; test: as above; settings: imipenem 4 μg/mL fixed
Procedure: as §1

[16] = test system: Acinetobacter baumannii XNWB 0007; test: as above; settings: imipenem 4 μg/mL fixed
Procedure: as §1

| Structure (SMILES) | The minimum concentration of test compounds combined with ceftazidime (8 μg/mL) for bacteriostasis [1] | The minimum concentration of test compounds combined with ceftazidime (8 μg/mL) for bacteriostasis [2] | The minimum concentration of test compounds combined with ceftazidime (8 μg/mL) for bacteriostasis [3] | The minimum concentration of test compounds combined with ceftazidime (8 μg/mL) for bacteriostasis [4] | The minimum concentration of test compounds combined with ceftazidime (8 μg/mL) for bacteriostasis [5] | The minimum concentration of test compounds combined with ceftazidime (8 μg/mL) for bacteriostasis [6] | The minimum concentration of test compounds combined with ceftazidime (8 μg/mL) for bacteriostasis [7] | The minimum concentration of test compounds combined with ceftazidime (8 μg/mL) for bacteriostasis [8] | The minimum concentration of test compounds combined with imipenem (4 μg/mL) for bacteriostasis [9] | The minimum concentration of test compounds combined with imipenem (4 μg/mL) for bacteriostasis [10] | The minimum concentration of test compounds combined with imipenem (4 μg/mL) for bacteriostasis [11] | The minimum concentration of test compounds combined with imipenem (4 μg/mL) for bacteriostasis [12] | The minimum concentration of test compounds combined with imipenem (4 μg/mL) for bacteriostasis [13] | The minimum concentration of test compounds combined with imipenem (4 μg/mL) for bacteriostasis [14] | The minimum concentration of test compounds combined with imipenem (4 μg/mL) for bacteriostasis [15] | The minimum concentration of test compounds combined with imipenem (4 μg/mL) for bacteriostasis [16] |
| --- | --- | --- | --- | --- | --- | --- | --- | --- | --- | --- | --- | --- | --- | --- | --- | --- |
| NCC(O)c1nnc([C@@H]2CC3(CC3)[C@@H]3CN2C(=O)N3OS(=O)(=O)O)o1 (stereo partly drawn) [Example 9, (1R,4S)-4-(5-(2-amino-1-hydroxyethyl)-1,3,4-oxadiazol-2-yl)-6-oxo-5,7-diazaspiro [bicyclo[3.2.1]octane-2,1′-cyclopropan]-7-yl sulfate] | A (A: <8 μg/mL) | A (A: <8 μg/mL) | A (A: <8 μg/mL) | A (A: <8 μg/mL) | A (A: <8 μg/mL) | B (B: 8-16 μg/mL) | A (A: <8 μg/mL) | C (C: 16-128 μg/mL) | A (A: <8 μg/mL) | A (A: <8 μg/mL) | A (A: <8 μg/mL) | A (A: <8 μg/mL) | A (A: <8 μg/mL) | A (A: <8 μg/mL) | A (A: <8 μg/mL) | A (A: <8 μg/mL) |
| N=C(N)NCC(O)c1nnc([C@@H]2CC3(CC3)[C@@H]3CN2C(=O)N3OS(=O)(=O)O)o1 (stereo partly drawn) [Example 10, (1R,4S)-4-(5-(2-guanidyl-1-hydroxyethyl)-1,3,4-oxadiazol-2-yl)-6-oxo-5,7-diazaspiro [bicyclo[3.2.1]octane-2,1′-cyclopropan]-7-yl sulfate] | A (A: <8 μg/mL) | A (A: <8 μg/mL) | A (A: <8 μg/mL) | A (A: <8 μg/mL) | A (A: <8 μg/mL) | B (B: 8-16 μg/mL) | A (A: <8 μg/mL) | C (C: 16-128 μg/mL) | A (A: <8 μg/mL) | A (A: <8 μg/mL) | A (A: <8 μg/mL) | A (A: <8 μg/mL) | A (A: <8 μg/mL) | A (A: <8 μg/mL) | A (A: <8 μg/mL) | A (A: <8 μg/mL) |
| N=C(N)NC[C@@H](O)c1nnc([C@@H]2CC3(CC3)[C@@H]3CN2C(=O)N3OS(=O)(=O)O)o1 [Example 11, (1R,4S)-4-(5-((R)-2-guanidyl-1-hydroxyethyl)-1,3,4-oxadiazol-2-yl)-6-oxo-5,7-diazaspiro[bicyclo[3.2.1]octane-2,1′-cyclopropan]-7-yl sulfate] | A (A: <8 μg/mL) | A (A: <8 μg/mL) | A (A: <8 μg/mL) | A (A: <8 μg/mL) | A (A: <8 μg/mL) | C (C: 16-128 μg/mL) | A (A: <8 μg/mL) | C (C: 16-128 μg/mL) | A (A: <8 μg/mL) | A (A: <8 μg/mL) | A (A: <8 μg/mL) | A (A: <8 μg/mL) | A (A: <8 μg/mL) | B (B: 8-16 μg/mL) | A (A: <8 μg/mL) | B (B: 8-16 μg/mL) |
| N=C(N)NC[C@H](O)c1nnc([C@@H]2CC3(CC3)[C@@H]3CN2C(=O)N3OS(=O)(=O)O)o1 [Example 12, (1R,4S)-4-(5-((S)-2-guanidyl-1-hydroxyethyl)-1,3,4-oxadiazol-2-yl)-6-oxo-5,7-diazaspiro[bicyclo[3.2.1]octane-2,1′-cyclopropan]-7-yl sulfate] | A (A: <8 μg/mL) | A (A: <8 μg/mL) | B (B: 8-16 μg/mL) | A (A: <8 μg/mL) | A (A: <8 μg/mL) | C (C: 16-128 μg/mL) | B (B: 8-16 μg/mL) | C (C: 16-128 μg/mL) | A (A: <8 μg/mL) | A (A: <8 μg/mL) | A (A: <8 μg/mL) | A (A: <8 μg/mL) | A (A: <8 μg/mL) | B (B: 8-16 μg/mL) | A (A: <8 μg/mL) | B (B: 8-16 μg/mL) |
